Measured values reported in ChEMBL document CHEMBL1134999, “Synthesis and cytotoxic activity of a new potent daunomycinone derivative” (Bioorg Med Chem Lett, 2002).

Legend:
[1] = test system: MES-SA; experiment: In vitro cytotoxic activity was evaluated using the MES-SA multidrug-resistant subline MES-SA/Dx5; format: functional, cell-based; conditions: Homo sapiens
[2] = test system: L1210; experiment: In vitro cytotoxic activity was evaluated using the murine leukemia L1210 cell line; format: functional, cell-based; conditions: Mus musculus
[3] = test system: MES-SA; experiment: In vitro cytotoxic activity was evaluated using the human uterine sarcoma cell line MES-SA; format: functional, cell-based
[4] = test system: KB; experiment: Resistance factor (RF), ratio between the IC50 on the resistant cells and the IC50 on the corresponding sensitive cells of KB cell line; format: functional, Homo sapiens
[5] = test system: SK-MES-1; experiment: Resistance factor (RF), ratio between the IC50 on the resistant cells and the IC50 on the corresponding sensitive cells of MES cell line; format: functional, Homo sapiens
[6] = test system: KB 3-1; experiment: In vitro cytotoxic activity was evaluated using the human epidermoid carcinoma cell line KB-3-1; format: functional, cell-based
[7] = test system: KB; experiment: In vitro cytotoxic activity was evaluated using the KB-3-1 resistant to adriamycin (ADR) subline KB-A1; format: functional, cell-based; conditions: Homo sapiens

Compound: COc1cccc2c1C(=O)c1c(O)c3c(c(O)c1C2=O)C[C@@](O)(C(=O)CO)C[C@@H]3O[C@H]1C[C@H](N)[C@H](O)[C@H](C)O1 [DOXORUBICIN]
- IC50 [1]: 12000 nM
- IC50 [2]: 25 nM
- IC50 [3]: 250 nM
- Resistance factor [4]: 333.8
- Resistance factor [5]: 48

Compound: COc1cccc2c1C(=O)c1c(O)c3c(c(O)c1C2=O)C[C@@](O)(C(C)=O)C[C@@H]3OC1CC(Br)C(N=[N+]=[N-])C(C)O1 (some centres not stated)
- IC50 [1]: 2000 nM
- IC50 [2]: 500 nM
- IC50 [3]: 7000 nM
- Resistance factor [4]: 1.1
- IC50 [6]: 800 nM
- IC50 [7]: 900 nM
- Resistance factor [5]: 0.28

Compound: COc1cccc2c1C(=O)c1c(O)c3c(c(O)c1C2=O)C[C@@](O)(C(C)=O)C[C@@H]3O[C@H]1C[C@H](N)[C@H](O)[C@H](C)O1 [DAUNORUBICIN]
- IC50 [1]: 3000 nM
- IC50 [2]: 40 nM
- IC50 [3]: 70 nM
- Resistance factor [4]: 295.7
- Resistance factor [5]: 42.8
